Our source for the TGI values is PubChem BioAssay (NCI).

Several values for one entry are separate records, joined by “and”; a condition that tells them apart may be missing. Equal entries are not always repeated.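 Each compound was tested at five concentrations against cells in 96-well plates for 48 hours. At the TGI there is no net growth.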

As usually defined, the TGI is the concentration at which net growth stops. A higher TGI goes with less potent growth arrest.

Test systems include K-562 leukemia; NCI-H522 lung; SN12C renal; CCRF-CEM leukemia; SF-539 CNS; MCF7 breast; SF-295 CNS; MDA-MB-435.
Assay in all cases: DTP human tumour cell line panel, 48 h

Take `COC(=O)C1CC2(CCC1=O)Cc1ccccc1C2=O` (centres undefined): the TGI in the test with K-562 leukemia, in the test on NCI-H522 lung, in the test with SN12C renal, in the test with CCRF-CEM leukemia, with SF-539 CNS and in the test with MCF7 breast was over 100 µM each time. Besides, the TGI in the test with SF-295 CNS was over 100 µM.
Regarding `O=C(Cn1c2c(c3ccccc31)CCCC2)NC1CCCCC1`, the TGI in the test on K-562 leukemia, with SN12C renal, in the test on MDA-MB-435, with CCRF-CEM leukemia, in the test on SF-539 CNS and in the test with MCF7 breast was over 100 µM throughout. For the same molecule, the TGI with SF-295 CNS was over 100 µM.
`CC1(CCC2C=CCC2)CCCNC1=S` (centres undefined): the TGI in the test on K-562 leukemia, with SN12C renal, in the test with MDA-MB-435, with CCRF-CEM leukemia, with SF-539 CNS and with MCF7 breast was over 10 µM in each case. For the same molecule, the concentration for total growth inhibition (TGI) with SF-295 CNS was over 10 µM.
Consider `CC(=O)OCC(OC(C)=O)C(OC(C)=O)C(C=NN(C(C)=O)S(=O)(=O)c1ccc(/C=C2\NC(=O)NC2=O)cc1)OC(C)=O` (centres undefined), for which the TGI with K-562 leukemia, with SN12C renal, with MDA-MB-435, with CCRF-CEM leukemia, in the test with SF-539 CNS and with MCF7 breast was over 100 µM each time. Moreover, in the test on SF-295 CNS, the total growth inhibition concentration (TGI) was over 100 µM.
`COc1cc2cc(C(=O)N3CC(CCl)c4ccc(O)cc43)[nH]c2c(OC)c1OC` (centres undefined): the TGI in the test with NCI-H522 lung was 0.00168 µM; in the test with SN12C renal, 0.148 µM and 0.104 µM; with MDA-MB-435 it was 0.0158 µM; in the test with CCRF-CEM leukemia, over 100 µM; in the test on SF-539 CNS, 0.00881 µM; in the test with SF-295 CNS it was 0.00398 µM.
On to `CC1(C)CC(=O)c2c(nc3ccc4ccccc4c3c2-c2ccc(NC(=O)CCCC(=O)Nc3ccc(-c4c5c(nc6ccc7ccccc7c46)CC(C)(C)CC5=O)cc3)cc2)C1`, for which the concentration for total growth inhibition (TGI) with K-562 leukemia, with SN12C renal, with MDA-MB-435, with CCRF-CEM leukemia, in the test on SF-539 CNS and with MCF7 breast was over 100 µM throughout. Besides, in the test on SF-295 CNS, the concentration for total growth inhibition (TGI) was over 100 µM.
Regarding `CNC(=O)N1CN(c2ccccc2)C2(CCN(CCCC(=O)c3ccc(F)cc3)CC2)C1=O`, the TGI in the test on K-562 leukemia stood at 49 µM; in the test on NCI-H522 lung it was 56.6 µM; in the test on SN12C renal, 75.4 µM; with CCRF-CEM leukemia, 70.8 µM; with SF-539 CNS, 34 µM; in the test with MCF7 breast it was 16 µM. In addition, the TGI in the test with SF-295 CNS is 31 µM.
Consider `COc1ccc(N2C(=O)C3c4[nH]c5ccc(C)cc5c4C4CCC(C)CC4C3C2=O)cc1` (centres undefined), for which the total growth inhibition concentration (TGI) in the test on K-562 leukemia, in the test on NCI-H522 lung, in the test on SN12C renal, in the test with MDA-MB-435, in the test on CCRF-CEM leukemia and in the test on SF-539 CNS was over 100 µM throughout. The molecule further showed a TGI in the test on SF-295 CNS of over 100 µM.
For the molecule `Cc1ccccc1N=Nc1ccc(N=Nc2c(O)ccc3ccccc23)c(C)c1`, the concentration for total growth inhibition (TGI) with K-562 leukemia, with NCI-H522 lung, in the test on SN12C renal, with MDA-MB-435 and with SF-295 CNS was over 100 µM in each case.
Consider `CC1CCCc2c(C#N)c(N)nc(-c3ccc(Cl)cc3)c21` (centres undefined), for which the concentration for total growth inhibition (TGI) was over 100 µM in the test with K-562 leukemia; 38.2 µM with SN12C renal; over 100 µM with MDA-MB-435; over 100 µM with CCRF-CEM leukemia; 33 µM in the test with SF-539 CNS; 84.5 µM in the test with MCF7 breast. This molecule also came in with a TGI in the test on SF-295 CNS of 49.2 µM.
Regarding `CC1=NN(c2ccccc2)C(=O)/C1=C/c1ccc(O)cc1`, the TGI with K-562 leukemia, in the test with SN12C renal, with MDA-MB-435, in the test with CCRF-CEM leukemia, in the test with SF-539 CNS and in the test with MCF7 breast was over 100 µM throughout. Moreover, in the test on SF-295 CNS, the concentration for total growth inhibition (TGI) was over 100 µM.
For `CCOC(=O)c1c(N2CCCC2)nsc1Nc1ccccc1`, the TGI with K-562 leukemia, in the test on SN12C renal, in the test on CCRF-CEM leukemia, with SF-539 CNS and with SF-295 CNS was over 100 µM in each case.
On to `NNC(=O)c1ccc(-n2nnc(C(=O)NN)c2C(=O)NN)cc1`, for which the TGI in the test on K-562 leukemia, in the test on SN12C renal, in the test with MDA-MB-435, with CCRF-CEM leukemia, in the test on MCF7 breast and in the test with SF-295 CNS was over 100 µM in each case.
With `N#CC(C#N)=Cc1ccc2c(c1)OC(Cl)O2` (centres undefined), the TGI was over 100 µM in the test on K-562 leukemia; 51.2 µM with SN12C renal; 35.7 µM in the test with MDA-MB-435; over 100 µM with CCRF-CEM leukemia; 38.6 µM in the test with SF-539 CNS; over 100 µM in the test with MCF7 breast. In addition, the TGI in the test with SF-295 CNS is 37.4 µM.
On to `CN(C)c1ccc(N=Nc2ccc3nc[nH]c3c2)cc1`, for which the TGI is 75.2 µM with K-562 leukemia; 51.1 µM in the test with NCI-H522 lung; 71 µM with SN12C renal; 47.7 µM in the test on MDA-MB-435; over 100 µM with CCRF-CEM leukemia; 36.9 µM with SF-539 CNS. In the test with SF-295 CNS, the total growth inhibition concentration (TGI) was 57.3 µM.
